Where two headings read alike, the source gives them in different places.
Columns and labels:
[1] = system: HepG2 cell line; assay: In vitro toxicity study on HepG2 cell line (resazurin, viability and IC50); type: cell-based, human; settings: for Viability (%) at different lipid concentrations, mean: HepG2 cells, 48 h post-treatment, relative to ethanol vehicle controls; for IC50: Homo sapiens, read-out: IC50 value, μM (on HepG2 cell)
In short: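 Resazurin read-out (ex 530/em 580 nm, 5 h at 37 °C) measured lipid toxicity 48 h after dosing HepG2 cells (1000/well) at 6.25–800 μM. Viability was normalised to ethanol vehicle, and IC50 was derived from concentration-response curves.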

[2] = system: HeLa cells; assay: Cell viability assessment with resazurin assay (Method A); type: cell-based; settings: human
In short: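 Viability is given as percent of control metabolic activity: background-corrected resorufin fluorescence (ex 540, em 610 nm), with OptiMEM-only wells set to 100%. Resazurin at 0.025 mg/ml in DMEM/F12 with 10% FCS was applied to LNP-transfected HeLa cells for 50 min at 37 °C.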

[3] = Encapsulation efficiency of loaded LNPs, RiboGreen RNA assay (Method A); type: physicochemical
In short: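 Encapsulation determined by RiboGreen fluorescence (excitation 480, emission 525) comparing Triton X-100–lysed and intact LNP wells, duplicates, after 10 min at 37° C and cooling to room temperature. Sample stocks ~4-7 μg/mL RNA in TE buffer; concentration from RNA standard curve.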

[4] = lipid toxicity, HepG2, 48 h post-treatment, resazurin, 6.25-800 μM
[5] = encapsulation efficiency of mRNA-loaded LNP, Method A, RiboGreen

Structure (SMILES) | Viability (%) at different lipid concentrations, mean ([1]; 6.25 μM lipid, resazurin) | Viability (%) at different lipid concentrations, mean ([1]; 12.5 μM lipid, resazurin) | Viability (%) at different lipid concentrations, mean ([1]; 25 μM lipid, resazurin) | Viability (%) at different lipid concentrations, mean ([1]; 50 μM lipid, resazurin) | Viability (%) at different lipid concentrations, mean ([1]; 100 μM lipid, resazurin) | Viability (%) at different lipid concentrations, mean ([1]; 200 μM lipid, resazurin) | Viability (%) at different lipid concentrations, mean ([1]; 400 μM lipid, resazurin) | Viability (%) at different lipid concentrations, mean ([1]; 800 μM lipid, resazurin) | IC50 [1, 4] | Cell Viability % (Average metabolic rate over all doses, Resazurin) [2] | EE (%) [3, 5] | IC50 ([1]; HepG2, 48 h) | EE (%) [3]
CCCCCCCC/C=C\CCCCCCCC(OCCCCCCCCCCCCCCC(C)C)O[Si](C)(C)OCCCCCCN(CCO)CCO (centres unmarked) [Example 76, (Z)-13-(heptadec-8-en-1-yl)-3-(2-hydroxyethyl)-11,11,29-trimethyl-10,12,14-trioxa-3-aza-11-silatriacontan-1-ol] | 101.9% | 100.5% | 98.5% | 100.8% | 112.3% | 103.8% | 77.7% | 70.0% | > 800 µM | 110% | 80% |  | 
CCCCC/C=C\C/C=C\CCCCCCCCOC(CCCCCCC/C=C\C/C=C\CCCCC)O[Si](C)(C)OCCCCCCN(C)[C@H](CO)Cc1ccccc1 (stereo partly drawn) [Example 77, (2S,23Z,26Z)-2-benzyl-13-((8Z,11Z)-heptadeca-8,11-dien-1-yl)-3,11,11-trimethyl-10,12,14-trioxa-3-aza-11-siladotriaconta-23,26-dien-1-ol] | 96.2% | 99.9% | 101.0% | 103.7% | 100.6% | 100.5% | 101.1% | 73.8% | > 800 µM | 112% | 85% |  | 
CCCCCCCC/C=C\CCCCCCCCOC(CCCCCCC/C=C\CCCCCCCC)O[Si](C)(C)OCCCCCCN(C)[C@H](CO)Cc1ccccc1 (stereo partly drawn) [Example 78, (2S,Z)-2-benzyl-13-((Z)-heptadec-8-en-1-yl)-3,11,11-trimethyl-10,12,14-trioxa-3-aza-11-siladotriacont-23-en-1-ol] | 92.0% | 101.6% | 101.5% | 102.9% | 101.9% | 100.8% | 56.4% | 1.6% | 414 µM | 121% | 87% |  | 
CCCCC/C=C\C/C=C\CCCCCCCCOC(CCCCCCC/C=C\C/C=C\CCCCC)O[Si](C)(C)OCCCCCCN(C)C (centres unmarked) [Example 79, (20Z,23Z)-10-((8Z,11Z)-heptadeca-8,11-dien-1-yl)-N,N,8,8-tetramethyl-7,9,11-trioxa-8-silanonacosa-20,23-dien-1-amine] | 100.82% | 98.88% | 99.57% | 101.89% | 99.49% | 76.57% | 52.32% | 34.54% |  | 91% |  | 473 µM | 83%
CCCCC/C=C\C/C=C\CCCCCCCCO[Si](C)(C)OC(CCCCCCC/C=C\C/C=C\CCCCC)OCCCN(C)C (centres unmarked) [Example 80, (17Z,20Z)-5-((8Z,11Z)-heptadeca-8,11-dien-1-yl)-N,N,7,7-tetramethyl-4,6,8-trioxa-7-silahexacosa-17,20-dien-1-amine] | 98.8% | 98.68% | 98.64% | 99.05% | 96.68% | 69.13% | 0.79% | 0.71% |  | 99% |  | 223 µM | 83%
CCCCCCCC/C=C\CCCCCCCCOC(=O)C(C)(C)CC(OCCCCCCCC/C=C\CCCCCCCC)O[Si](C)(C)OCCCCCCN(CCO)CCO (centres unmarked) [Example 84, (Z)-octadec-9-en-1-yl 1-hydroxy-3-(2-hydroxyethyl)-11,11,15,15-tetramethyl-13-(((Z)-octadec-9-en-1-yl)oxy)-10,12-dioxa-3-aza-11-silahexadecan-16-oate] | 87.8% | 99.3% | 101.8% | 104.5% | 103.5% | 90.4% | 82.2% | 88.5% | > 800 µM | 114% | 90% |  | 
CCCCCCCC/C=C\CCCCCCCCOC(=O)C(C)(C)CC(OCCCCCCCC/C=C\CCCCCCCC)O[Si](C)(C)OCCCCCCN1CCOCC1 (centres unmarked) [Example 85, (Z)-octadec-9-en-1-yl 4-((dimethyl((6-morpholinohexyl)oxy)silyl)oxy)-2,2-dimethyl-4-(((Z)-octadec-9-en-1-yl)oxy)butanoate] | 97.0% | 101.0% | 101.4% | 102.1% | 101.5% | 101.9% | 103.2% | 80.1% | > 800 µM | 110% | 90% |  | 
CCCCCCCC/C=C\CCCCCCCCOC(=O)C(C)(C)CC(OCCCCCCCC/C=C\CCCCCCCC)O[Si](C)(C)OCCCCCCN(CCCCO)CCCCO (centres unmarked) [Example 86, (Z)-octadec-9-en-1-yl 18-hydroxy-14-(4-hydroxybutyl)-2,2,6,6-tetramethyl-4-(((Z)-octadec-9-en-1-yl)oxy)-5,7-dioxa-14-aza-6-silaoctadecanoate] | 95.4% | 107.0% | 108.7% | 105.4% | 95.4% | 77.2% | 57.1% | 42.8% | 564 µM | 96% | 87% |  | 
CCCCCCCC/C=C\CCCCCCCCOC(=O)C(C)(C)CC(OCCCCCCCC/C=C\CCCCCCCC)O[Si](C)(C)OCCCCCCN1CCCCC1 (centres unmarked) [Example 87, (Z)-octadec-9-en-1-yl 4-((dimethyl((6-(piperidin-1-yl)hexyl)oxy)silyl)oxy)-2,2-dimethyl-4-(((Z)-octadec-9-en-1-yl)oxy)butanoate] | 101.2% | 97.0% | 97.0% | 97.8% | 97.6% | 102.1% | 73.7% | 35.2% |  | 84% | 89% | 625 µM | 
CCCCCCCC/C=C\CCCCCCCCOC(=O)C(C)(C)CC(OCCCCCCCC/C=C\CCCCCCCC)O[Si](C)(C)OCCCCCCN(CCCO)CCCO (centres unmarked) [Example 88, (Z)-octadec-9-en-1-yl 1-hydroxy-4-(3-hydroxypropyl)-12,12,16,16-tetramethyl-14-(((Z)-octadec-9-en-1-yl)oxy)-11,13-dioxa-4-aza-12-silaheptadecan-17-oate] | 109.1% | 112.0% | 109.5% | 99.6% | 77.4% | 57.3% | 36.6% | 21.0% | 272 µM | 91% | 87% |  | 

From patent US20260109721A1, “IONIZABLE CATIONIC LIPIDS INCORPORATING SILICON: SYNTHESIS AND LNP FORMULATION” (priority 2023, published 2026)
